Patent US20070003483A1, “Method of evaluating organ function” (Oxygenix Co., Ltd., priority 2003, published 2007)

Tests used:
Mrp2 [1] = test: Immunohistochemical analysis of subcellular Mrp2 distribution in 8-hr cold ischemia-reperfused grafts; set-up: species or system rat; conditions: 8-hr cold ischemia and 60-min reperfusion
Excerpt: To evaluate Mrp2 in hepatocytes of the grafts, the liver samples were fixed, sliced, and stained with a monoclonal antibody M2III-6, according to previous study (32). The antigen on the sections was visualized by phycoerythrin-conjugated anti-mouse IgG and observed through laser confocal microfluorography at 488 nm as described elsewhere (20, 30). In order to examine BC localization and hepatocellular internalization of Mrp2, the sections were double immunostained with a monoclonal antibody against ZO-1, another marker expressed in hepatocellular junction (33). To determine changes in the protein distribution in a semi-quantitative manner, single-stained microfluorographs of Mrp2 were converted as monochrome 8-bit images (14). The gray levels (1-256) were measured at both cytoplasmic and canalicular domains in a single hepatocytes. At least 5 different sites for each domain were chosen in a single cell to calculate the relative values of cytoplasmic intensities versus the corresponding canalicular intensities. Such a measurement was carried out in 40-60 hepatocytes in 4 different grafts to construct histograms of the percentage cytoplasmic intensities of Mrp2-associated immunoreactivities, being defined as % I-Mrp2(cyt/bc). The elevation of this index represented an increase in the Mtp2 internalization. […]

Mrp2 [2] = target: T1, Mrp2 (Rattus norvegicus, UniProt Q63120); test: In situ visualization of hepatocellular CF exclusion by intravital laser confocal microfluorography in perfused liver grafts; conditions: grafts perfused with 1.5 mM probenecid
T1 construct: Livers of these rats were perfused ex vivo with the oxygenated Krebs-Henseleit buffer; from tissue; host or cells: whole rat liver grafts (Wistar), perfused ex vivo
Procedure: (§1) Male Wistar rats (220-260 g, CLEA Japan, Tokyo) and Eisai hyperbilirubinemia rats (EHBR) (220-260 g, Sankyo Inc., Tokyo) that had been allowed free access to laboratory chow and tap water were fasted 24 hrs before experiments. Livers of these rats were perfused ex vivo with the oxygenated Krebs-Henseleit buffer as the base-line perfusate (17, 18), and stored in the University of Wisconsin solution at 4° C. for desired lengths of time (14). When necessary, rats were pretreated with an intravenous injection of liposome-encapsulated dichloromethylene diphosphonate (LDD) at 24 hrs prior to preparation of the ex-vivo liver perfusion for the cold storage according to our previous studies (14, 19). […]
Liver grafts loaded with CF using the aforementioned protocols were observed through intravital laser confocal microfluorography as described previously (14, 20, 30). […] To calibrate the fluorescence intensities, known concentrations of CF were prepared in vitro and the images were captured under the identical optical parameters of the camera. Gray levels in hepatocytes were measured by variable square window (2×2 μm^2) using digital image processor (18, 31). At least 10 different hepatocytes in the microscopic fields of interests were analyzed in a single experiment.

Mrp2 [3] = target: T1, Mrp2; test: Biliary excretion rates of carboxyfluorescein (T1/2 of dye exclusion) in whole perfused liver grafts; conditions: normoperfused grafts in the presence of 1.5 mM probenecid
Procedure: as §1
Carboxyfluorescein (CF) is an organic anion which excreted from various cells through Mrp2 (26, 27). […] Bile samples collected from these preparations were deep-frozen until the fluorescence measurements were carried out using a 96-well multi-channel fluorescence spectrophotometer. The measurements were performed under epi-illumination at 440 nm, the isosbestic wavelength of the dye which yields fluorescence at 510 nm without interference with pH values of the samples (26). […] With this assumption, biliary CF lifetimes were determined as the T1/2 of the exponential decay.

T1 sequence (Q63120 whole entry, the tested form may be a part): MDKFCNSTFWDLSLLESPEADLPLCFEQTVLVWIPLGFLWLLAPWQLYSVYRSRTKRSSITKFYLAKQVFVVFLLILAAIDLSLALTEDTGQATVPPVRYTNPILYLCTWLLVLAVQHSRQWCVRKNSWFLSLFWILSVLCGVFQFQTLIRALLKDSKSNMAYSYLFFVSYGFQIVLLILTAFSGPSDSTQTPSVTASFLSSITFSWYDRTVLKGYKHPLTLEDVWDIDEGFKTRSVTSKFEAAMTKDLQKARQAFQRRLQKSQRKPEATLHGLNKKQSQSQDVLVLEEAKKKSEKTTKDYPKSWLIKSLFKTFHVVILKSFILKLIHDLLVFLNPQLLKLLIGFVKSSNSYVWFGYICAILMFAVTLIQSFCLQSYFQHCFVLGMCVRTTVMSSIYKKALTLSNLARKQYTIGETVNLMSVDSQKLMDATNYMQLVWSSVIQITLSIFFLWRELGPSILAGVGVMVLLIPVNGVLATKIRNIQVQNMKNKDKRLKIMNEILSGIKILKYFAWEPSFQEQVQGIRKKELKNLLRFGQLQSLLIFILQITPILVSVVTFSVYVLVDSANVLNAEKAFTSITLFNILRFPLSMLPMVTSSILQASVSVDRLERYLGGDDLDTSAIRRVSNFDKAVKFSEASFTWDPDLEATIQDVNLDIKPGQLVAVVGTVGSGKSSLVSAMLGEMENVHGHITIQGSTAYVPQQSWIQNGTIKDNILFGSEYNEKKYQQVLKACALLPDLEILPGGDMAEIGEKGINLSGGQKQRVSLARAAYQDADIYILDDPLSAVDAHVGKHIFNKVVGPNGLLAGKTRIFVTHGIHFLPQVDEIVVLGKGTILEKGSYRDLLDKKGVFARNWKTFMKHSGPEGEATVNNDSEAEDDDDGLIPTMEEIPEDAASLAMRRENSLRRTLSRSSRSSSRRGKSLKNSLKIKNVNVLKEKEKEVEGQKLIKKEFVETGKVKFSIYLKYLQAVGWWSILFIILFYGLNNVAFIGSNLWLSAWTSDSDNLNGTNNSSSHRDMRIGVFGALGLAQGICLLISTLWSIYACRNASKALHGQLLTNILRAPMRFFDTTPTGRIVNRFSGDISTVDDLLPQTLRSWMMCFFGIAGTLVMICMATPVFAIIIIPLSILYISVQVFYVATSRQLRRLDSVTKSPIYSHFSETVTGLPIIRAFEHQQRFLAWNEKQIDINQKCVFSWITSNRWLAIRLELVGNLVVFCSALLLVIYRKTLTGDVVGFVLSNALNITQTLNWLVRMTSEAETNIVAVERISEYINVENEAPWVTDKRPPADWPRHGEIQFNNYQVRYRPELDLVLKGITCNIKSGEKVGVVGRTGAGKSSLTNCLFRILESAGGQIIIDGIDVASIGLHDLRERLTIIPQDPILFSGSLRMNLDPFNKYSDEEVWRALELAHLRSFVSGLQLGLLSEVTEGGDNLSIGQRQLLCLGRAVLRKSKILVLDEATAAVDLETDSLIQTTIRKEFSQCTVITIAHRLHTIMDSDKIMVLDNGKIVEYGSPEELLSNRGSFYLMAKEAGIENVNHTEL

SMILES | Mrp2 internalization (reduced BC localization, elevated cytoplasmic intensity) (Mrp2 [1]) | decay of hepatocellular CF fluorescence (Mrp2 transport) (Mrp2 [2]) | transient increase of CF concentrations in bile (Mrp2 [3])
O=C(O)/C=C/c1ccc(Cn2ccnc2)cc1 [OKY-046] | attenuated |  | 
CCCN(CCC)S(=O)(=O)c1ccc(C(=O)O)cc1 [probenecid] |  | substantially slowed | not observed
